# Measurements: US20240408096A1, “DOSING REGIMENS FOR ORAL ALK2 KINASE INHIBITORS” (BioCryst Pharmaceuticals, Inc., priority 2020, published 2024)
# Experiments:
# [1] = molecular target: T1, ALK2(R206H) (Homo sapiens, UniProt Q04771, R206H); test: ALK2(R206H) functional assays; format: biochemical; settings: several functional assays; read-out: ALK2(R206H) activity potency (IC50)
# T1 sequence (Q04771 21-509 R206H): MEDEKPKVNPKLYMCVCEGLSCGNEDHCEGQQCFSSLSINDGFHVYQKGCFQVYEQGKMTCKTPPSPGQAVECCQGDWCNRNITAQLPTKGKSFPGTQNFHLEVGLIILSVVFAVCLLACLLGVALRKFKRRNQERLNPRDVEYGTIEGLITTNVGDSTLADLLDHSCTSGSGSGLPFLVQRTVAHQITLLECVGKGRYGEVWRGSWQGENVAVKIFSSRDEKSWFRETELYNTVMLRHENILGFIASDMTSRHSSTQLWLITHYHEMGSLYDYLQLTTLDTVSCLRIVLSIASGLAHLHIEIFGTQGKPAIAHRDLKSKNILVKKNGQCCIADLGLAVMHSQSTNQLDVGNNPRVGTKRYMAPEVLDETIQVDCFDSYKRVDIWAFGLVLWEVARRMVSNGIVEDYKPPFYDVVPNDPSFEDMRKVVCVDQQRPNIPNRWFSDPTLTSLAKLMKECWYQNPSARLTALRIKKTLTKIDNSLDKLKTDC
# [2] = plasma protein binding, dog; format: in vitro ADME; settings: in vitro
# [3] = molecular target: CYP2E1 (Homo sapiens, UniProt P05181); test: CYP inhibition in vitro; format: in vitro ADME
# [4] = Phase 1 Part 1 (SAD) urinary PK; format: in vivo, human; settings: for CLR,0-6 / CLR,6-12 / CLR,12-24 / Cum % excreted0-72 / CumAe0-72 / CLR,24-48: Part 1 SAD, geometric mean (CV%); for CumAe0-72: urine 0 to 72 hours
# Description: Four sequential SAD cohorts were dosed.
# (§1) Urine samples were collected according to the schedule in Tables 4 and 5 for Parts 1 and 2, respectively. The pre-dose sample on Day 1 was collected any time in the 2 hours prior to dosing. A 30-minute window was allowed around collection intervals.
# [5] = Phase 1 Part 2 (MAD) urinary PK; format: in vivo, human; settings: for CLR,0-6 / CLR,6-12 / CLR,32-24 / CLR,144-150 / CLR,150-156 / CLR,156-168 / Cum % excreted0-168 / CumAe0-168: Part 2 MAD, geometric mean (CV%); for CumAe0-168: urine 0 to 168 hours
# Description: Four sequential MAD cohorts were dosed.
# as §1
# Chain of CYP2E1 (P05181 whole entry): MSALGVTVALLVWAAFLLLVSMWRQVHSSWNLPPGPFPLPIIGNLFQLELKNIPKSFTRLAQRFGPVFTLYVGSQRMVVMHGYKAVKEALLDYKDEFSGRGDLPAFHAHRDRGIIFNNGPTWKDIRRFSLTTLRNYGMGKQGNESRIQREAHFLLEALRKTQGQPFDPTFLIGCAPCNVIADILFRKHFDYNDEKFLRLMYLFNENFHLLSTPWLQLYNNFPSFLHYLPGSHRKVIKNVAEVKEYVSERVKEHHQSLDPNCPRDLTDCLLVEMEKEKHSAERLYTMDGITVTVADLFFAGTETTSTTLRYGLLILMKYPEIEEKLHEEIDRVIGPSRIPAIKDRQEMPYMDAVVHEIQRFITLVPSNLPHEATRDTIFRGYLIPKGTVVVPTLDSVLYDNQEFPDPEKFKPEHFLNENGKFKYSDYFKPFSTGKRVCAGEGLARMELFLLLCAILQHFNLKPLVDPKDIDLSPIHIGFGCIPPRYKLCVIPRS
structure (smiles),measurement,setting,value
COc1cc(-n2cnc(Nc3nc(N4CCC[C@H]4C(N)=O)nc4sccc34)c2)cc(OC)c1OC.O=C(O)CC(O)(CC(=O)O)C(=O)O [Compound A],IC50,[1],< 100 nM
same,plasma protein binding,[2],≥ 99.9%
same,CYP2E1 inhibition,[3],not an inhibitor
same,cumulative amount of parent compound excreted in the urine,"[4]; Part 1, single doses 5 to 25 mg, all cohorts",less than 0.3 % of the administered dose
same,"CLR,0-6",[4]; 5 mg,23.63 (28.3) mL/h
same,"CLR,6-12",[4]; 5 mg,14.61 (92.8) mL/h
same,"CLR,12-24",[4]; 5 mg,"8.576 (263,3) mL/h"
same,Cum % excreted0-72,[4]; 5 mg,0.2668 (43.6) %
same,CumAe0-72,[4]; 5 mg,"13,340 (43.6) ng"
same,"CLR,0-6",[4]; 10 mg,9.499 (79.6) mL/h
same,"CLR,6-12",[4]; 10 mg,6.137 (93.2) mL/h
same,"CLR,12-24",[4]; 10 mg,"4.759 (56,5) mL/h"
same,Cum % excreted0-72,[4]; 10 mg,0.1206 (84.0) %
same,CumAe0-72,[4]; 10 mg,"12,060 (84.0) ng"
same,"CLR,0-6",[4]; 15 mg fasted,12.84 (56.2) mL/h
same,"CLR,6-12",[4]; 15 mg fasted,6.793 (98.8) mL/h
same,"CLR,12-24",[4]; 15 mg fasted,8.008 (114.1) mL/h
same,"CLR,24-48",[4]; 15 mg fasted,7.674 (80.2) mL/h
same,Cum % excreted0-72,[4]; 15 mg fasted,0.1409 (79.5) %
same,CumAe0-72,[4]; 15 mg fasted,"21,130 (79.5) ng"
same,"CLR,0-6",[4]; 25 mg,15.98 (99.4) mL/h
same,"CLR,6-12",[4]; 25 mg,10.56 (138.2) mL/h
same,"CLR,12-24",[4]; 25 mg,9.785 (145.0) mL/h
same,"CLR,24-48",[4]; 25 mg,10.44 (87.9) mL/h
same,Cum % excreted0-72,[4]; 25 mg,0.1928 (87.0) %
same,CumAe0-72,[4]; 25 mg,"48,210 (87.0) ng"
same,cumulative amount of parent compound excreted in the urine,"[5]; Part 2, 5 to 20 mg QD",less than 1%
same,"CLR,0-6",[5]; 5 mg QD,17.16 (90.4) mL/h
same,"CLR,6-12",[5]; 5 mg QD,11.11 (152.2) mL/h
same,"CLR,32-24",[5]; 5 mg QD,12.32 (83.5) mL/h
same,"CLR,144-150",[5]; 5 mg QD,22.90 (79.5) mL/h
same,"CLR,150-156",[5]; 5 mg QD,10.85 (144.3) mL/h
same,"CLR,156-168",[5]; 5 mg QD,10.66 (114.9) mL/h
same,Cum % excreted0-168,[5]; 5 mg QD,0.2515 (114.5) %
same,CumAe0-168,[5]; 5 mg QD,"88,030 (114.5) ng"
same,"CLR,0-6",[5]; 10 mg QD,9.850 (75.1) mL/h
same,"CLR,6-12",[5]; 10 mg QD,5.468 (73.0) mL/h
same,"CLR,32-24",[5]; 10 mg QD,5.694 (65.7) mL/h
same,"CLR,144-150",[5]; 10 mg QD,12.01 (64.4) mL/h
same,"CLR,150-156",[5]; 10 mg QD,4.787 (168.5) mL/h
same,"CLR,156-168",[5]; 10 mg QD,3.480 (152.2) mL/h
same,Cum % excreted0-168,[5]; 10 mg QD,0.1209 (66.5) %
same,CumAe0-168,[5]; 10 mg QD,"84,600 (66.5) ng"
same,"CLR,0-6",[5]; 15 mg QD,14.19 (131.3) mL/h
same,"CLR,6-12",[5]; 15 mg QD,7.172 (100.3) mL/h
same,"CLR,32-24",[5]; 15 mg QD,6.837 (92.5) mL/h
same,"CLR,144-150",[5]; 15 mg QD,11.49 (171.8) mL/h
same,"CLR,150-156",[5]; 15 mg QD,8.596 (123.2) mL/h
same,"CLR,156-168",[5]; 15 mg QD,6.846 (93.4) mL/h
same,Cum % excreted0-168,[5]; 15 mg QD,0.1676 (89.5) %
same,CumAe0-168,[5]; 15 mg QD,"176,000 (89,5) ng"
same,"CLR,0-6",[5]; 20 mg QD,13.36 (76.2) mL/h
same,"CLR,6-12",[5]; 20 mg QD,9.673 (64.5) mL/h
same,"CLR,32-24",[5]; 20 mg QD,7.595 (39.1) mL/h
same,"CLR,144-150",[5]; 20 mg QD,15.28 (85.8) mL/h
same,"CLR,150-156",[5]; 20 mg QD,7.978 (54.7) mL/h
same,"CLR,156-168",[5]; 20 mg QD,4.674 (146.4) mL/h
same,Cum % excreted0-168,[5]; 20 mg QD,0.1705 (47.2) %
same,CumAe0-168,[5]; 20 mg QD,"238,600 (47.2) ng"
